Source: patent US11607422B2, “Uttroside B and derivatives thereof as therapeutics for hepatocellular carcinoma” (Rajiv Gandhi Centre for Biotechnology, an Autonomous …, priority 2016, dated 2023)

Key:
[1] = system: HepG2 xenograft tumors; test: HepG2-xenograft model in NOD-SCID mice; format: in vivo
Procedure: Our next attempt was to validate the anticancer potential of Uttroside B against hepatic cancer, using an in vivo HepG2-xenograft model in NOD-SCID mice. The HepG2 cells suspended in matrigel were subcutaneously injected in the flank region of the mice. The study has been schematically represented in FIG. 6A. Uttroside B, dissolved in PBS, was administered after 15 days of tumor cell implantation when the tumor attained a size of 50-100 mm^3 approximately. Uttroside B (10 mg/kg bw) was injected intraperitoneally, thrice weekly for four weeks. […] The size of the tumor was measured using Vernier calipers every week and the corresponding tumor volume was calculated. […] However, upon sacrifice, very small tumors were observed beneath the skin of animals treated with Uttroside B too, though the size was drastically less compared to that of control animals [FIG. 6B-6C]. […] Although this study was in a mouse the skilled artisan knows that that dose may be converted to human equivalent dosage by simple math. For example the 10 mg/kg body weight for a mouse would convert to a 0.8 mg/kg body weight for a human and result in a range from 0.05 to 1.2 mg/kg body weight.
In vivoHepG2-Xenograft model: All animal studies were performed in accordance with the protocols approved by Institute Animal Ethical Committee IAEC No: 151(b)/RUBY/2012. An ectopic xenograft model in NOD-SCID (NOD.CB17-Prkdcscid/J) mice was used for evaluating the anti-cancer properties of Uttroside B. The animals required for this study were obtained from Animal Research Facility of Rajiv Gandhi Centre for Biotechnology and were fed with standard food pellets and autoclaved water ad libitum. Animal handling, tumor induction, drug treatment and tissue collection were performed in sterile conditions.
Evaluation of the anticancer activity of Uttroside B, isolated from S. nigrum in human liver cancer (HepG2)-xenograft model: xenografts models were established in NOD-SCID mice as described in literature.^10 Male NOD-SCID (NOD.CB17-Prkdc^scid/J) mice of age 6-8 weeks were used for the study. Tumors were induced by subcutaneous injection of HepG2 cells (7×10^6 cells in 100 μL matrigel) in the lower right or left flank of mice and were allowed to grow for a period of two weeks to attain a size of approximately 50-100 mm^3 as measured by Vernier calipers. The mice were then randomly grouped into control and treatment group of 9 animals each. The treatment groups were injected intraperitoneally with Uttroside B (10 mg/kg doses thrice weekly) for one month. Tumor volume was measured every seven days to evaluate tumor growth and drug response. The animals were sacrificed at the end of the study and tumor samples were collected for histopathological and immunohistochemical analysis.
Histopathology: The tissue cryo-sections were washed with PBS (5 min, 2 times) and distilled water for 5 min. Then the sections were stained with hematoxylin for 2 min. Excess stain was washed off and the slides were dipped in differentiation solution for 1-2 s. They were then kept in tap water for 10 min and 70% Isopropyl alcohol for 5 min respectively and were counter stained with eosin solution for 1 min. The sections were then transferred to 100% Isopropyl alcohol and kept for 2 min, cleared in xylene for 1 h and were mounted using DPX. Stained sections were observed using a light microscope and were photographed. The pathology of liver and tumor tissue sections were examined and verified by Dr. Sankar Sundaram, Professor of Pathology, Medical College, Thiruvananthapuram.
Immunohistochemistry of xenograft tissue sections: Immunohistochemical analysis of various proteins in the xenograft tumor tissue sections was performed using the detection kit, as per manufacturer's protocol Super Sensitive™ Polymer-HRP IHC Detection System (Biogenex, Calif., USA). Paraformaldehyde-fixed OCT-embedded tissue sections were kept in PBS for 15 min. […]

[2] = system: normal immortalized hepatocytes (Chang Liver); test: MTT assay in normal immortalized hepatocytes; format: cell-based; conditions: at 1250 nM, 72 h
Procedure: FIG. 2A is a graph comparison of IC50 of Uttroside B in a panel of cancer cells of different origin. The cancer cell lines HeLa, A375, HepG2, MDA-MB-231, HL 60, A549 and HCT116 were treated with Uttroside B as indicated, incubated for 72 h and the cell viability was assessed by MTT assay. FIG. 2B is a graph showing dose dependent effect of Uttroside B in the liver cancer cell lines and in normal immortalized hepatocytes. The liver cancer cell lines HepG2, Hep3B, SKHEP-1, Huh-7 and normal hepatocytes (Chang liver), were treated with Uttroside B incubated for 72 h and the cell viability was assessed by MTT assay. FIG. 2C is a graph comparison of IC50 of Uttroside B with sorafenib. HepG2 cells were treated with Uttroside B as indicated, incubated for 72 h, and the cell viability was assessed by MTT assay. […] The clones developed were counted and plotted as a graph. Colony containing more than four cells was counted as one clone. […]
MTT [3-(4,5-dimethylthiazole-2-yl)-2,5-diphenyltetrazolium bromide] assay is a standard colorimetric assay, suitable for analyzing proliferation, viability, and cytotoxicity. […] After overnight incubation, cells were treated with different concentrations of organic extracts (25-250 μg/ml) of S. nigrum and the isolated compound Uttroside B (250-1250 nM) for 72 h and cytotoxicity was measured. […]

[3] = 10 mg/kg bw i.p. thrice weekly, four weeks

C[C@H](CC[C@@]1(O)O[C@H]2C[C@H]3[C@@H]4CC[C@H]5C[C@@H](O[C@@H]6O[C@H](CO)[C@H](O[C@@H]7O[C@H](CO)[C@@H](O)[C@H](O[C@@H]8OC[C@@H](O)[C@H](O)[C@H]8O)[C@H]7O[C@@H]7O[C@H](CO)[C@@H](O)[C@H](O)[C@H]7O)[C@H](O)[C@H]6O)CC[C@]5(C)[C@H]4CC[C@]3(C)[C@H]2[C@@H]1C)CO[C@@H]1O[C@H](CO)[C@@H](O)[C@H](O)[C@H]1O [Uttroside B]
cleaved PARP expression in tumor sections (IHC) [1, 3]: Significant upregulation in the expression of cleaved PARP
externally visible tumor at end of treatment [1, 3]: no tumor was visible externally
histopathology (H&E) of tumor mass [1, 3]: massive destruction of cells
tumor volume vs control [1, 3]: significantly low
tissue level expression of LC3 (IHC) ([1]; HepG2 xenograft tumor sections): very high
tissue level expression of beclin-1 (IHC) ([1]; HepG2 xenograft tumor sections): very high
phosphorylation status of p70S6K and 4E-BP-1 in xenograft tumor tissue ([1]; immunohistochemical staining, NOD-SCID mice): significant down-regulation in the phosphorylation status
viable normal immortalized hepatocytes [2]: 70%
